Values quoted from earlier work, collected in patent US7232435B2, “Delivery of a sympatholytic cardiovascular agent to the central nervous system to counter heart failure and pathologies associated with heart failure” (Medtronic, Inc., priority 2004, dated 2007).
Structures can show the parent of a compound that is named as a salt.

Key:
[1] = intrathecal delivery
[2] = oral or transdermal
[3] = bolus intravenous injection

Structure (SMILES) | undesirable side effects [1] | major side effects [2] | autonomic effects (sympathetic outflow, vagal tone, baroreceptor reflex sensitivity) [3] | hemodynamic effects (heart rate, preload, afterload, pulmonary artery and right atrial pressure) [3] | time of peak effects [3] [min]
Clc1cccc(Cl)c1N=C1NCCN1 [clonidine, 2-[(2,6-dichlorophenyl)amino]-2-imidazoline] | Abnormally low blood pressure (hypotension) and bradycardia | sedation and dry mouth |  |  | 
Clc1cccc(Cl)c1N=C1NCCN1 [clonidine HCl] |  |  | decreased sympathetic outflow, increased vagal tone and sensitivity of the baroreceptor reflex | Reductions were observed in heart rate, left ventricular filling pressure (preload), mean systemic arterial pressure (afterload), mean pulmonary artery pressure and right atrial pressure | 5 to 20
